Experimental data from ChEMBL document CHEMBL1933040, “The novel agent ophiobolin O induces apoptosis and cell cycle arrest of MCF-7 cells through activation of MAPK signaling pathways” (Bioorg Med Chem Lett, 2012).
Active and inactive are the calls of the source. No cut-off for these calls is given here.

Columns and labels:
MCF7 [1] = assay: Cell cycle arrest in human MCF7 cells assessed as accumulation at G0/G1 phase at 17.86 uM after 24 hrs by flow cytometry (reference value: 39.34 +/- 3.37%); format: functional
[2] = molecular target: T1, MAP kinase p38 (Homo sapiens) (UniProt O15264+Q15759+Q16539+P53778); assay: Activation of MAPK p38 phosphorylation in human MCF7 cells at 17.86 uM after 12 hrs by Western blot analysis; format: cell-based
MCF7 [3] = assay: Effect on total MAPK p38 protein level in human MCF7 cells at 17.86 uM after 12 to 48 hrs by Western blot analysis; format: functional, cell-based
MCF7 [4] = assay: Cell cycle arrest in human MCF7 cells assessed as accumulation at G0/G1 phase at 17.86 uM after 48 hrs by flow cytometry (reference value: 39.34 +/- 3.37%); format: functional
MCF7 [5] = assay: Induction of apoptosis in human MCF7 cells assessed as change in Bax/Bcl2 ratio at 17.86 uM by Western blot analysis; format: functional, cell-based; conditions: TDE = time-dependent effect
[6] = molecular target: T1, MAP kinase p38 (Homo sapiens); assay: Activation of MAPK p38 phosphorylation in human MCF7 cells at 17.86 uM after 48 hrs by Western blot analysis in presence of p38 inhibitor SB203580; format: cell-based
[7] = Activation of JNK phosphorylation in human MCF7 cells at 17.86 uM after 24 hrs by Western blot analysis; format: cell-based
MCF7 [8] = assay: Cell cycle arrest in human MCF7 cells assessed as accumulation at G0/G1 phase at 17.86 uM by flow cytometry; format: functional, cell-based; conditions: TDE = time-dependent effect
MCF7 [9] = assay: Cytotoxicity against human MCF7 cells after 48 hrs by MTT assay; format: functional, cell-based
[10] = molecular target: T1, MAP kinase p38 (Homo sapiens); assay: Activation of MAPK p38 phosphorylation in human MCF7 cells at 17.86 uM after 36 to 48 hrs by Western blot analysis; format: cell-based
HUVEC = assay: Cytotoxicity against human HUVEC cells after 48 hrs by MTT assay; format: cell-based
MCF7 [11] = assay: Induction of apoptosis in human MCF7 cells assessed as change in Bcl-2 protein level at 17.86 uM after 12 hrs by Western blot analysis in presence of JNK inhibitor SP600125; format: functional, cell-based
MCF7 [12] = assay: Cell cycle arrest in human MCF7 cells assessed as accumulation at G0/G1 phase at 17.86 uM after 12 hrs by flow cytometry (reference value: 39.34 +/- 3.37%); format: functional
MCF7 [13] = assay: Induction of apoptosis in human MCF7 cells assessed as increase in Bim expression level at 17.86 uM after 12 to 48 hrs by Western blot analysis; format: functional, cell-based
MCF7 [14] = assay: Induction of apoptosis in human MCF7 cells assessed as change in Bax expression level at 17.86 uM after 12 to 48 hrs by Western blot analysis; format: functional, cell-based
MCF7 [15] = assay: Effect on total JNK protein level in human MCF7 cells at 17.86 uM after 12 to 48 hrs by Western blot analysis; format: functional, cell-based
MCF7 [16] = assay: Induction of apoptosis in human MCF7 cells assessed as increase of Bcl-2 phosphorylation at Ser70 at 17.86 uM after 12 hrs by Western blot analysis in presence of JNK inhibitor SP600125; format: functional, cell-based
MCF7 [17] = assay: Effect on total ERK 1/2 protein level in human MCF7 cells at 17.86 uM after 12 to 48 hrs by Western blot analysis; format: functional, cell-based
[18] = molecular target: T2, Mitogen-activated protein kinase; ERK1/ERK2 (Homo sapiens) (UniProt P27361+P28482); assay: Activation of ERK1/2 phosphorylation in human MCF7 cells at 17.86 uM after 24 hrs by Western blot analysis relative to control; format: cell-based
MCF7 [19] = assay: Induction of apoptosis in human MCF7 cells assessed as decrease in Bcl2 expression level at 17.86 uM after 12 to 48 hrs by Western blot analysis; format: functional, cell-based
[20] = molecular target: T2, Mitogen-activated protein kinase; ERK1/ERK2 (Homo sapiens); assay: Activation of ERK1/2 phosphorylation in human MCF7 cells at 17.86 uM after 48 hrs by Western blot analysis in presence of ERK inhibitor U0126; format: cell-based
MCF7 [21] = assay: Induction of apoptosis in human MCF7 cells at 17.86 uM after 48 hrs using Annexin V-FITC and propidium iodide staining by flow cytometry (reference value: 3.71 +/- 0.63%); format: functional
MCF7 [22] = assay: Induction of apoptosis in human MCF7 cells at 17.86 uM after 48 hrs by using Annexin V-FITC and propidium iodide staining by flow cytometry in presence of JNK inhibitor SP600125; format: functional, cell-based
MCF7 [23] = assay: Induction of apoptosis in human MCF7 cells at 17.86 uM using Annexin V-FITC and propidium iodide staining by flow cytometry; format: functional, cell-based; conditions: TDE = time-dependent effect

T2 sequence (P27361 whole entry, looked up): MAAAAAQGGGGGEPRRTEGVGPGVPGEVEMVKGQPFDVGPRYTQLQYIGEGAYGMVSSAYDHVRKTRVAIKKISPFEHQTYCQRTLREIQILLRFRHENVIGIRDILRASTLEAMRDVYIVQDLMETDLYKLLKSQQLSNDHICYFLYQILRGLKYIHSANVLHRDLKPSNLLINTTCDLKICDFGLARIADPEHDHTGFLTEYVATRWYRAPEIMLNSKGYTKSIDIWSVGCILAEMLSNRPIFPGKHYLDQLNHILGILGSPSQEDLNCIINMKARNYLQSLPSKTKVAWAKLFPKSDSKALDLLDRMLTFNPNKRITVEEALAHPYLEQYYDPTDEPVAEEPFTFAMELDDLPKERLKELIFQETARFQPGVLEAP
T2 sequence (P28482 whole entry, looked up): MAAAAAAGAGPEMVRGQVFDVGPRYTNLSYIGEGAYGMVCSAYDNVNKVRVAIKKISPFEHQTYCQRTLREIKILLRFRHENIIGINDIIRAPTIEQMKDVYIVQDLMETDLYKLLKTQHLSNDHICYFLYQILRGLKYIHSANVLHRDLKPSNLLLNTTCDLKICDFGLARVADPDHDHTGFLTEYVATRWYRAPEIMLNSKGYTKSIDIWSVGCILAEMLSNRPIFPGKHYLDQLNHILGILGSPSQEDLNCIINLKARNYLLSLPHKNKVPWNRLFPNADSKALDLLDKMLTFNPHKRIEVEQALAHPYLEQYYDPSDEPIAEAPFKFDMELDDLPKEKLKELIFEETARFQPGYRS

For `CO[C@H]1O[C@@]2(OC)C[C@@](C)(O)[C@H]3C[C@@]4(C)CC[C@H]([C@@H](C)/C=C\C=C(C)C)[C@@H]4C/C=C/1[C@H]32` [OPHIOBOLIN O], the Activity (MCF7 [1]) was 60.1%, the Activity [2] was “Active” and the Activity (MCF7 [3]) was “Active”. The Activity (MCF7 [4]) was 78.54%, the Activity (MCF7 [5]) was “tde” and the Activity [6] was “inactive”. For the same molecule, the Activity [7] was “Active”, the Activity (MCF7 [8]) was “tde” and the Activity (MCF7 [9]) was “Dose-dependent effect”. For the same molecule, the IC50 (MCF7 [9]; MCF7, 48 h) was 17.9 µM, the Activity [10] was “Active” and the Activity (HUVEC) was “Non-toxic”. The Activity (MCF7 [11]) was “Active”, the Activity (MCF7 [12]) was 44.79% and the Activity (MCF7 [13]) was “Active”. For the same molecule, the Activity (MCF7 [14]) was “inactive”, the Activity (MCF7 [15]) was “Active” and the Activity (MCF7 [16]) was “Active”. For the same molecule, the Activity (MCF7 [17]) was “Active”, the Activity [18] was “Active” and the Activity (MCF7 [19]) was “Active”. For the same molecule, the Activity [20] was “inactive”, the Activity (MCF7 [21]) was 47.18% and the Activity (MCF7 [22]) was “inactive”. For the same molecule, the Activity (MCF7 [23]) was “tde”.
